The text below walks through data of EP1081186A1, “Stabilized aqueous acrylamide polymer composition and photographic element containing the composition” (EASTMAN KODAK COMPANY (a New Jersey corporation), priority 1999, dated 2001).

The nature of this data set: Inherent viscosity stability of aqueous acrylamide polymer solutions on keeping (capillary viscometer). The format is physicochemical. The following applies: 0.33 % added to 15 % copolymer solution; at room temperature and at 50°C; compared with isopropanol. The method, then: In the following examples the inherent viscosities of the solutions were measured in a capillary viscometer at a polymer concentration of 0.25 g/dl using aqueous 0.1M sodium sulfate as the solvent. The measurements were carried out at a temperature of 25 degrees C. Inherent viscosity (I.V.) is calculated as: I.V. = ln( t / t0 )/c where t is the polymer solution flow time through the capillary, t0 is the solvent flow time, and c is the polymer concentration. [formula]
Initial Inherent Viscosities ranged from 2.00 to 2.12 dL/g. Percentage Change was defined with the following equation: %Change=(I.V.(t)-I.V.(0))/(I.V.(0))× 100 [formula] where I.V.(0) is the initial inherent viscosity and I.V.(t) is the inherent viscosity of the polymer at time t.
Initial Inherent Viscosities range from 1.90 to 2.00 dL/g. The I.V. change is determined as previously defined.

Each structure is given as a SMILES string.

Regarding `CC(C)(C)c1cccc(O)c1O` [t-butyl catechol], the inherent viscosity stability result was “equal to or better than ten times the concentration of isopropanol”.
